Laboratory results as given in patent US10202658B2, “Methods for determining hypersusceptibility of HIV-1 to non-nucleoside reverse transcriptase inhibitors” (Monogram Biosciences, Inc., priority 2005, dated 2019).

What was measured:
Type in all cases: cell-based
Conditions in all cases: share of samples designated hypersusceptible
[1] = tested on: HIV-1, RT mutations: 65R; assay: PhenoSense resistance test vector assay, clinical isolates with 65R
Protocol: (§1) In preferred embodiments, the phenotypic analysis of NNRTI hypersusceptibility is performed using PHENOSENSE™ (ViroLogic Inc., South San Francisco, Calif.). See Petropoulos et al., 2000, Antimicrob. Agents Chemother. 44:920-928; U.S. Pat. Nos. 5,837,464 and 6,242,187. PHENOSENSE™ is a phenotypic assay that achieves the benefits of phenotypic testing and overcomes the drawbacks of previous assays. Because the assay has been automated, PHENOSENSE™ provides high throughput methods under controlled conditions for determining NNRTI resistance, susceptibility, or hypersusceptibility of a large number of individual viral isolates.
(§2) The assay can be performed by first co-transfecting host cells with RTV DNA and a plasmid that expresses the envelope proteins of another retrovirus, for example, amphotropic murine leukemia virus (MLV). Following transfection, viral particles can be harvested from the cell culture and used to infect fresh target cells in the presence of varying amounts of anti-viral drug(s). The completion of a single round of viral replication in the fresh target cells can be detected by the means for detecting replication contained in the vector. […] The susceptibility of an HIV, or population of HIV, can be determined by measuring the concentration of antiviral drug at which the luciferase activity detected is half-maximal. […]

[2] = tested on: HIV-1, RT mutations: 65R and 184V; assay: PhenoSense resistance test vector assay, clinical isolates with 65R and 184V
Protocol: as §1, §2

[3] = tested on: HIV-1, RT mutations: T215Y and 2 TAMs; assay: PhenoSense resistance test vector assay, clinical isolates with T215Y and 2 TAMs
Protocol: as §1, §2

Row | Compound | % IC50 0.4 fold < WT [1] | % IC50 0.4 fold < WT [2] | % IC50 0.4 fold < WT [3]
1 | CC(C)Nc1cccnc1N1CCN(C(=O)c2cc3cc(NS(C)(=O)=O)ccc3[nH]2)CC1 [DLV, delavirdine] | 44.4% | 42.7% | 71.8%
2 | Cc1ccnc2c1NC(=O)c1cccnc1N2C1CC1 [NVP, nevirapine] | 55.6% | 50.7% | 31.3%
